Experimental data taken from patent publication US6599525B2, “Dressings and bandages comprising same” (Johnson & Johnson Consumer Companies, Inc., priority 1998, dated 2003).

Legend:
Experiment in all cases: Microbiocidal activity of bandage samples on inoculated agar
Type in all cases: cell-based
Details in all cases: benzalkonium chloride in the dressing and bandage of the invention
Escherichia coli = test system: Escherichia coli
Text: (§1) The purpose of this test was to determine whether the efficacy of the benzalkonium chloride contained within the absorbent substrate of a bandage of the invention would be adversely affected when a portion of the skin-facing surface of the absorbent substrate contained a discontinuous coating of an ointment-like composition. The specimens tested were the bandages of Example 4 comprising the dressing of Example 2. Test samples 2.5 cm×2 cm were cut from the bandages so as to remove the longitudinally extending adhesive strip portions that extended beyond the boundary of the dressing portion of the bandage.
(§2) The microbiocidal activity of the benzalkonium chloride in the dressing was tested by placing samples of the dressing on a peptone-casein-soya agar growth medium contained in petri dishes having an area of 64 square centimeters that had been inoculated with certain microorganisms. The test samples were placed in the dishes so that the skin facing side of the dressing contacted the agar medium. The following microorganisms were used:
(§3) The bactericidal suspensions for seeding of the prepared petri dishes were taken from cultures in their exponential growth phase. The concentration of each suspension was determined according to an AENOR (Association Francaise Normalisation) standard method using spectrophotometry at 620 nm. Suspensions of the desired concentration were then prepared by successive dilution to give seeding stock solutions.
(§4) A standard volume of the seeding stock solution was placed in the center of each prepared petri dish and spread with the help of a spreader. The inoculated plates were dried off in a drying oven at 37° C. for 30 minutes. The dressings were placed on top of the medium in the manner described above, and the petri dishes were then incubated for a total of 24 to 48 hours at 37° C. Dishes were removed from the incubator periodically and the extent of bacterial growth underneath the dressing was measured.

Mycobacterium smegmatis = test system: Mycobacterium smegmatis
Text: as §1, §2, §3, §4

Streptococcus foecalis = test system: Streptococcus foecalis
Text: as §1, §2, §3, §4

Staphylococcus aureus = test system: Staphylococcus aureus
Text: as §1, §2, §3, §4

Measured: bactericidal activity (summary in words)

benzalkonium chloride
significant bactericidal activity: all assays above
